Laboratory results taken from US9023789B2, “Amylin analogs and pharmaceutical compositions thereof” (Novo Nordisk A/S, priority 2012, dated 2015).
Entries after “also recorded” stand apart in the source; their conditions may differ. Like-named read-outs stand apart in the source and are kept apart here. Bridge positions count the residues as written; N and C are the ends. Ends that are not written are not given here.

How the values were obtained:
Male Sprague-Dawley rats = experiment: ASSAY (XI) single subcutaneous administration, food intake monitored for 48 hours in rats; assay type: in vivo, rat; conditions: for Food intake red (%) 0-24 h / Food intake red (%) 24-48 h: single s.c., compared to vehicle
Source text: Assay (XI)—Effect from Single Subcutaneous Administration of Analogue on Plasma Calcium in Rats
Male Sprague-Dawley rats (Taconic Europe, ˜250 g at test date) were acclimatized to reversed day light cycle (lights on from 10 PM to 10 AM) and single housing in online food intake monitoring system (Ellegaard MBRose, Denmark) prior to study start. […] Data are illustrated in graphs as mean±SEM.

Male Wistar rats = experiment: ASSAY (XII) effect from single subcutaneous administration on plasma calcium in rats; assay type: in vivo, rat; conditions: for Plasma calcium red (%) 0-12 h (maximal): single s.c., compared to vehicle
Description: Assay (XII)—Effect from Single Subcutaneous Administration of Analogue on Plasma Calcium in Rats
Male Wistar rats (Taconic Europe, ˜250 g at test date) were acclimatized to handling prior to the study. Rats were divided in groups of five and subcutaneously dosed with test compound at time=0. At time T=−15 min; 1 h, 2 h, 4 h, 7 h, 12 h, and 24 h a blood sample was obtained and heparin stabilized plasma was analysed for total calcium (Cobas, Hitachi). Data are illustrated in graphs as mean±SEM.

Sprague Dawley (SD) rats = experiment: ASSAY (I) efficacy testing on appetite (food intake) using an ad libitum fed rat model; assay type: in vivo; conditions: rats, single subcutaneous 1000 nmol/kg injection
Source text: Sprague Dawley (SD) rats from Taconic Europe, Denmark are used for the experiments. The rats have a body weight 200-250 g at the start of experiment. The rats arrive at least 10-14 days before start of experiment to allow acclimatization to experimental settings. During this period the animals are handled at least 2 times. After arrival rats are housed individually for one week in a reversed light/dark phase (meaning that lights are off during daytime and on during nighttime) for two weeks. Since rats are normally active and eat their major part of their daily food intake during the dark period, rats are dosed in the morning right before lights are turned off. This set-up results in the lowest data variation and highst test sensitivity. The experiment is conducted in the rats' home cages and rats have free access to food and water throughout the acclimatization period and the experiment period. Each dose of derivative is tested in a group of 5-8 rats. A vehicle group of 6-8 rats is included in each set of testing. Rats are dosed once according to body weight with a 0.01-3 mg/kg solution administered intraperitoneally (ip), orally (po) or subcutaneously (sc). The time of dosing is recorded for each group. After dosing, the rats are returned to their home cages, where they then have access to food and water. The food consumption is recorded individually continuously by online registration or manually every hour for 7 hours, and then after 24 h and sometimes 48 h. At the end of the experimental session, the animals are euthanized.
The individual data are recorded in Microsoft excel sheets. Outliers are excluded after applying the Grubbs statistical evaluation test for outliers, and the result is presented graphically using the GraphPad Prism program.

[1] = system: amylin receptor / calcitonin receptor; conditions: background statement, cited from earlier work

Compound | Food intake red (%) 0-24 h (Male Sprague-Dawley rats; 30 nmol/kg) [%] | Food intake red (%) 24-48 h (Male Sprague-Dawley rats; 30 nmol/kg) [%] | food intake monitored over 48 hours (Male Sprague-Dawley rats; single subcutaneous administration, 30 nmol/kg, versus vehicle) | plasma calcium (Male Wistar rats; dose 30 nmol/kg) | Plasma calcium red (%) 0-12 h (maximal) (Male Wistar rats; 3 nmol/kg) [%] | Plasma calcium red (%) 0-12 h (maximal) (Male Wistar rats; 30 nmol/kg) [%] | reduction of food intake (Sprague Dawley (SD) rats) [%] | Food intake red (%) 0-24 h (Male Sprague-Dawley rats; 1000 nmol/kg) [%] | Food intake red (%) 24-48 h (Male Sprague-Dawley rats; 1000 nmol/kg) [%] | Plasma calcium red (%) 0-12 h (maximal) (Male Wistar rats; 1000 nmol/kg) [%] | potency on the amylin receptor relative to the calcitonin receptor [1] | potency on the amylin receptor relative to the calcitonin receptor ([1]; listed as pramlintide) [times]
CC(C)C[C@H](NC(=O)[C@H](CCCCN)NC(=O)CNC(=O)[C@H](CC(C)C)NC(=O)[C@@H](NC(=O)[C@@H]1CSSC[C@H](N)C(=O)N[C@@H](CO)C(=O)N[C@@H](CC(N)=O)C(=O)N[C@@H](CC(C)C)C(=O)N[C@@H](CO)C(=O)N[C@@H]([C@@H](C)O)C(=O)N1)C(C)C)C(=O)N[C@@H](CO)C(=O)N[C@@H](CCC(N)=O)C(=O)N[C@@H](CCC(=O)O)C(=O)N[C@@H](CC(C)C)C(=O)N[C@@H](Cc1c[nH]cn1)C(=O)N[C@@H](CCCCN)C(=O)N[C@@H](CC(C)C)C(=O)N[C@@H](CCC(N)=O)C(=O)N[C@H](C(=O)N[C@@H](Cc1ccc(O)cc1)C(=O)N1CCC[C@H]1C(=O)N[C@@H](CCCNC(=N)N)C(=O)N[C@H](C(=O)N[C@@H](CC(N)=O)C(=O)N[C@H](C(=O)NCC(=O)N[C@@H](CO)C(=O)NCC(=O)N[C@H](C(=O)N1CCC[C@H]1C(N)=O)[C@@H](C)O)[C@@H](C)O)[C@@H](C)O)[C@@H](C)O [salmon calcitonin, reference compound] | 87 | 19 | reduction of food intake; also recorded: reduces food intake | below 1.7 mM | 35 | 39 |  |  |  |  |  | 
Pramlintide (KCNTATCATQRLANFLVHSSNNFGPILPPTNVGSNTY-NH2; disulfide 2-7; UniProt P10997 34-70, looked up, variant A25P S28P S29P) [reference compound] |  |  |  |  |  |  | 25 | 25 | 0 | 28 | approximately 14 times | 14
